Tests used:
ERα receptor = ERα receptor (Homo sapiens (Human), UniProt P03372); assay: PRα induction assay in MCF7 cells (ERα agonism); format: cell-based; conditions: MCF7 breast cancer cells
Description: PRα Induction Assay in MCF7 Cells
The purpose of the following PRα induction assay is to determine whether a test compound has agonistic activity against ERα receptor (an agonist would be expected to activate the receptor).
Culture MCF7 (purchased from ATCC HTB-22) in DMEM media supplemented with 10% FBS, 0.01 mg/mL human insulin 1 and 1% penicillin/streptomycin antibiotics and plate the cells (prior to becoming 70% confluent) in 384-well flat-bottom plates at a density of 4,000 cells per well in 20 μL volume in DMEM phenol red free media containing 10% FBS (charcoal stripped). Incubate the cells overnight in a cell culture incubator (5% CO2, 95% relative humidity at 37° C.) and allow the cells to attach to the plate. The following day, dose the cells with test compound. Use an Echo 555 acoustic dispenser to prepare compound serial dilutions (1:3) in a range from 6 μM to 0.0003 μM. Dose the cells with the addition of the test compound (5 μL) from the serial dilution plate to the cell plate producing a final DMSO concentration of 0.2% with a final concentration of the test compound dose range between 2 and 0.0001 μM. For the maximum point use media containing 0.2% of DMSO and for the minimum point, use fulvestrant diluted at […] final concentrations in the growth media containing 0.2% DMSO. After dosing with the test compound, incubate the cell plates at 37° C. and 5% CO2 for 24 hours. Fix the cells by adding 14% para-formaldehyde (10 μL) for 30 minutes at room temperature. Wash cells once with PBS (20 μL) and incubate with PBS (20 μL) containing 0.5% (v/v) TWEEN® 20 for 1 hour. […]
The following day, wash cells with PBS 0.05% TWEEN® 20 (2×20 μL) and incubate with secondary antibody (20 μL/well) (1:1000 dilution, Goat anti-rabbit IgM ALEXA FLUOR™ 488) in PBS 1% BSA for 105 minutes at room temperature. […] Scan plates with ACUMEN EXPLORER™ [Laser-scanning fluorescence microplate cytometer manufactured by TTP LABTECH LTD] to measure PRα. […]

[1] = Rat oral bioavailability assay; format: in vivo; conditions: plasma, Sprague-Dawley rats, IV 1 mg/kg, PO 10 mg/kg, read-out: oral bioavailability (% F)
Description: Rat Oral Bioavailability Assay
Administer the test compound to Sprague-Dawley rats IV at 1 mg/kg (using vehicles of either: 20% CAPTISOL® in 25 mM sodium phosphate buffer, pH2 quantum satis; or 25% DMA, 15% EtOH, 10% propylene glycol, 25% 2-pyrrolidone, and 25% purified water) and PO at 10 mg/kg (using a vehicle of 1% hydroxyethyl cellulose, 0.25% polysorbate 80, 0.05% Antifoam 1510-US, and purified water quantum satis). Collect serial blood samples at 0.08, 0.25, 0.5, 1, 2, 4, 8, and 12 hours post dose for IV bolus and at 0.25, 0.5, 1, 2, 4, 8, and 12 hours post dose after oral administration. After treatment with an EDTA […], obtain plasma by centrifugation and store at −70° C. until analysis by LC-MS/MS. Determine the test compound concentration in plasma and upload into the Watson LIMS™ system where noncompartmental analysis is used to calculate Area Under the Curve (AUC) for both IV and PO arms. Calculate oral bioavailability (% F) via the following equation, % F=(AUCPO×DoseIV)/(AUCIV×DosePO)×100.

Sequence of ERα receptor (P03372 whole entry): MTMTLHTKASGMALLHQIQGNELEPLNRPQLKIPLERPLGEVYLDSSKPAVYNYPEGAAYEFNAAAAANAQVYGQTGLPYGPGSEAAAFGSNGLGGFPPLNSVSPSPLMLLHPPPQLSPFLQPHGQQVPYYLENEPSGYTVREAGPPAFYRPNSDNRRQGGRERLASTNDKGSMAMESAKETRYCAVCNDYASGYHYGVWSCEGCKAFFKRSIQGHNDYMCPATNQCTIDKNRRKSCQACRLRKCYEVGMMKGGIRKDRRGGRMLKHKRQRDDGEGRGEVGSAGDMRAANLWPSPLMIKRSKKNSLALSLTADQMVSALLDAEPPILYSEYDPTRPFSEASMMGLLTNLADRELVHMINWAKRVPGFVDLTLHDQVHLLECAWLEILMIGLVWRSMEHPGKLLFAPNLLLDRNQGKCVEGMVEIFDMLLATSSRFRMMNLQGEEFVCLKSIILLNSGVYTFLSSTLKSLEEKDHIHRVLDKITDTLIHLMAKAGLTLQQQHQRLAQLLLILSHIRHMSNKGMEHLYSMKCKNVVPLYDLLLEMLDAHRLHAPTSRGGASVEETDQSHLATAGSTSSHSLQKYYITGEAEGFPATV

Compound | agonistic activity (PRα induction) (ERα receptor) | bioavailability [1]
Oc1ccc2c3c(cnc2c1)-c1ccc(C(F)(F)F)cc1OC3c1ccc(OCCN2CC(CF)C2)cc1 (racemic) [Example 1, Racemic 5-(4-{2-[3-(Fluoromethyl)azetidin-1-yl]ethoxy}phenyl)-8-(trifluoromethyl)-5H-[1]benzopyrano[4,3-c]quinolin-2-ol] | no significant agonistic activity | 
Oc1ccc2c3c(cnc2c1)-c1ccc(C(F)(F)F)cc1OC3c1ccc(OCCN2CC(CF)C2)cc1 (single isomer, unassigned; isomer 1) [Example 1A, 5-(4-{2-[3-(Fluoromethyl)azetidin-1-yl]ethoxy}phenyl)-8-(trifluoromethyl)-5H-[1]benzopyrano[4,3-c]quinolin-2-ol, Isomer 1] | no significant agonistic activity | 
Oc1ccc2c3c(cnc2c1)-c1ccc(C(F)(F)F)cc1OC3c1ccc(OCCN2CC(CF)C2)cc1 (single isomer, unassigned; isomer 2) [Example 1B, 5-(4-{2-[3-(Fluoromethyl)azetidin-1-yl]ethoxy}phenyl)-8-(trifluoromethyl)-5H-[1]benzopyrano[4,3-c]quinolin-2-ol, Isomer 2] | no significant agonistic activity | ~50%
